# Laboratory results from ChEMBL document CHEMBL3352542, “Synthesis, biological evaluation and molecular modeling study of 2-(1,3,4-thiadiazolyl-thio and 4-methyl-thiazolyl-thio)-quinazolin-4-ones as a new class of DHFR inhibitors” (Bioorg Med Chem Lett, 2014).
# Active and inactive are the calls of the source. The rule behind the calls is not given here.
# Tests used:
# [1] = tested on: Pseudomonas aeruginosa; experiment: Antimicrobial activity against Pseudomonas aeruginosa assessed as inhibition of visible growth after 24 hrs by disc-diffusion method; type: functional, organism-based
# [2] = tested on: Staphylococcus aureus; experiment: Antimicrobial activity against Staphylococcus aureus assessed as inhibition of visible growth after 24 hrs by disc-diffusion method; type: functional, organism-based
# [3] = tested on: Escherichia coli; experiment: Antimicrobial activity against Escherichia coli assessed as inhibition of visible growth after 24 hrs by disc-diffusion method; type: functional, organism-based
# [4] = tested on: Bacillus subtilis; experiment: Antimicrobial activity against Bacillus subtilis assessed as inhibition of visible growth after 24 hrs by disc-diffusion method; type: functional, organism-based
# [5] = tested on: Bacillus subtilis; experiment: Antimicrobial activity against Bacillus subtilis assessed as inhibition zone at 200 ug/disk after 24 hrs by disc-diffusion method; type: functional; conditions: for zone of inhibition at 200 µg/disc: read-out: IZ
# [6] = tested on: Candida albicans; experiment: Antimicrobial activity against Candida albicans assessed as inhibition zone at 200 ug/disk after 24 hrs by disc-diffusion method; type: functional; conditions: for zone of inhibition at 200 µg/disc: read-out: IZ
# [7] = tested on: Escherichia coli; experiment: Antimicrobial activity against Escherichia coli assessed as inhibition zone at 200 ug/disk after 24 hrs by disc-diffusion method; type: functional; conditions: for zone of inhibition at 200 µg/disc: read-out: IZ
# [8] = tested on: Candida albicans; experiment: Antimicrobial activity against Candida albicans assessed as inhibition of visible growth after 24 hrs by disc-diffusion method; type: functional, organism-based
# [9] = tested on: Pseudomonas aeruginosa; experiment: Antimicrobial activity against Pseudomonas aeruginosa assessed as inhibition zone at 200 ug/disk after 24 hrs by disc-diffusion method; type: functional; conditions: for zone of inhibition at 200 µg/disc: read-out: IZ
# [10] = tested on: Staphylococcus aureus; experiment: Antimicrobial activity against Staphylococcus aureus assessed as inhibition zone at 200 ug/disk after 24 hrs by disc-diffusion method; type: functional; conditions: for zone of inhibition at 200 µg/disc: read-out: IZ
# [11] = Growth inhibition of human OVCAR5 cells at 10 uM after 48 hrs; type: functional; conditions: OVCAR-5, 48 h, read-out: GI
# [12] = Growth inhibition of human UO31 cells at 10 uM after 48 hrs; type: functional; conditions: UO-31, 48 h, read-out: GI
# [13] = target: T1, Dihydrofolate reductase (Bos taurus, UniProt P00376); experiment: Inhibition of bovine liver DHFR
# T1 sequence (P00376 whole entry): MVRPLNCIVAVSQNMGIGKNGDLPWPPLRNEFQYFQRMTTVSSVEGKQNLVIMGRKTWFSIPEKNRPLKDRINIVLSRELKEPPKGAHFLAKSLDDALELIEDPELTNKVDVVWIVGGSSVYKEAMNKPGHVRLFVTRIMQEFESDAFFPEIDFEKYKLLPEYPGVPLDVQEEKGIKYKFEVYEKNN
# [14] = Growth inhibition of human HCT15 cells at 10 uM after 48 hrs; type: functional; conditions: HCT-15, 48 h, read-out: GI
# [15] = tested on: NCI-H23; experiment: Growth inhibition of human NCI-H23 cells at 10 uM after 48 hrs; type: functional; conditions: NCI-H23, 48 h, read-out: GI
# [16] = tested on: M14; experiment: Growth inhibition of human M14 cells at 10 uM after 48 hrs; type: functional; conditions: M14, 48 h, read-out: GI
# [17] = tested on: K562; experiment: Growth inhibition of human K562 cells at 10 uM after 48 hrs; type: functional; conditions: K562, 48 h, read-out: GI
# [18] = tested on: MDA-MB-231; experiment: Growth inhibition of human MDA-MB-231 cells at 10 uM after 48 hrs; type: functional; conditions: MDA-MB-231, 48 h, read-out: GI
# [19] = tested on: SK-MEL-5; experiment: Growth inhibition of human SK-MEL-5 cells at 10 uM after 48 hrs; type: functional; conditions: SK-MEL-5, 48 h, read-out: GI
# [20] = Growth inhibition of human NCI-ADR-RES cells at 10 uM after 48 hrs; type: functional; conditions: read-out: GI
# [21] = Growth inhibition of human HCT116 cells at 10 uM after 48 hrs; type: functional; conditions: HCT-116, 48 h, read-out: GI
# [22] = tested on: SF-268; experiment: Growth inhibition of human SF268 cells at 10 uM after 48 hrs; type: functional; conditions: SF-268, 48 h, read-out: GI
# [23] = Growth inhibition of human HOP92 cells at 10 uM after 48 hrs; type: functional; conditions: HOP-92, 48 h, read-out: GI
# [24] = tested on: CAKI-1; experiment: Growth inhibition of human CAKI-1 cells at 10 uM after 48 hrs; type: functional; conditions: CAKI-1, 48 h, read-out: GI
# [25] = Growth inhibition of human UACC257 cells at 10 uM after 48 hrs; type: functional; conditions: UACC-257, 48 h, read-out: GI
# [26] = Growth inhibition of human UACC62 cells at 10 uM after 48 hrs; type: functional; conditions: UACC-62, 48 h, read-out: GI
# [27] = tested on: SN12C; experiment: Growth inhibition of human SN12C cells at 10 uM after 48 hrs; type: functional; conditions: read-out: GI
# [28] = tested on: SR; experiment: Growth inhibition of human SR cells at 10 uM after 48 hrs; type: functional; conditions: read-out: GI
# [29] = Growth inhibition of human SF295 cells at 10 uM after 48 hrs; type: functional; conditions: SF-295, 48 h, read-out: GI
# [30] = Growth inhibition of human SF539 cells at 10 uM after 48 hrs; type: functional; conditions: SF-539, 48 h, read-out: GI
# [31] = Growth inhibition of human RXF393 cells at 10 uM after 48 hrs; type: functional; conditions: RXF 393, 48 h, read-out: GI
# [32] = tested on: U-251; experiment: Growth inhibition of human U251 cells at 10 uM after 48 hrs; type: functional; conditions: U-251, 48 h, read-out: GI
# [33] = Growth inhibition of human PC3 cells at 10 uM after 48 hrs; type: functional; conditions: PC-3, 48 h, read-out: GI
# [34] = tested on: T47D; experiment: Growth inhibition of human T47D cells at 10 uM after 48 hrs; type: functional; conditions: read-out: GI
# [35] = Growth inhibition of human LOXIMVI cells at 10 uM after 48 hrs; type: functional; conditions: LOX IMVI, read-out: GI
# [36] = Growth inhibition of human Hs 578T cells at 10 uM after 48 hrs; type: functional; conditions: read-out: GI
# [37] = tested on: A498; experiment: Growth inhibition of human A498 cells at 10 uM after 48 hrs; type: functional; conditions: A498, 48 h, read-out: GI
# [38] = tested on: HT-29; experiment: Growth inhibition of human HT-29 cells at 10 uM after 48 hrs; type: functional; conditions: HT-29, 48 h, read-out: GI
# [39] = tested on: 786-0; experiment: Growth inhibition of human 786-0 cells at 10 uM after 48 hrs; type: functional; conditions: 786-0, 48 h, read-out: GI
# [40] = Growth inhibition of human MOLT4 cells at 10 uM after 48 hrs; type: functional; conditions: MOLT-4, 48 h, read-out: GI
# [41] = Growth inhibition of human OVCAR8 cells at 10 uM after 48 hrs; type: functional; conditions: OVCAR-8, 48 h, read-out: GI
# [42] = tested on: A549; experiment: Growth inhibition of human A549 cells at 10 uM after 48 hrs; type: functional; conditions: A549, 48 h, read-out: GI
# [43] = tested on: SNB-19; experiment: Growth inhibition of human SNB19 cells at 10 uM after 48 hrs; type: functional; conditions: SNB-19, 48 h, read-out: GI
# [44] = tested on: KM12; experiment: Growth inhibition of human KM12 cells at 10 uM after 48 hrs; type: functional; conditions: KM12, 48 h, read-out: GI
# [45] = Growth inhibition of human BT549 cells at 10 uM after 48 hrs; type: functional; conditions: BT-549, 48 h, read-out: GI
compound,measurement,setting,value
CC(=O)NS(=O)(=O)c1ccc(N)cc1 [SULFACETAMIDE],Activity,[1],Active
same,Activity,[2],Active
same,Activity,[3],Active
same,Activity,[4],Active
same,zone of inhibition at 200 µg/disc,[5],22 mm
same,zone of inhibition at 200 µg/disc,[6],25 mm
same,zone of inhibition at 200 µg/disc,[7],18 mm
same,Activity,[8],Active
same,zone of inhibition at 200 µg/disc,[9],28 mm
same,zone of inhibition at 200 µg/disc,[10],20 mm
Cc1ccc2nc(Sc3sc(N)nc3C)n(-c3ccc(Cl)cc3)c(=O)c2c1,inhibition of growth at 10 µM,[11],12.1%
same,inhibition of growth at 10 µM,[12],46%
same,IC50,[13],7 µM
same,inhibition of growth at 10 µM,[14],27.7%
same,inhibition of growth at 10 µM,[15],10.1%
same,inhibition of growth at 10 µM,[16],15.6%
same,inhibition of growth at 10 µM,[17],15.6%
same,inhibition of growth at 10 µM,[18],13%
same,inhibition of growth at 10 µM,[19],16.3%
same,inhibition of growth at 10 µM,[20],17.5%
same,inhibition of growth at 10 µM,[21],22.8%
same,inhibition of growth at 10 µM,[22],13.2%
same,inhibition of growth at 10 µM,[23],43.3%
same,inhibition of growth at 10 µM,[24],11.2%
same,inhibition of growth at 10 µM,[25],13.6%
same,inhibition of growth at 10 µM,[26],26%
same,inhibition of growth at 10 µM,[27],12.8%
same,inhibition of growth at 10 µM,[28],49.2%
same,inhibition of growth at 10 µM,[29],18.2%
same,inhibition of growth at 10 µM,[30],13.9%
same,inhibition of growth at 10 µM,[31],28.5%
same,inhibition of growth at 10 µM,[32],21.5%
same,inhibition of growth at 10 µM,[33],28.6%
same,inhibition of growth at 10 µM,[34],12.4%
same,zone of inhibition at 200 µg/disc,[5],8 mm
same,zone of inhibition at 200 µg/disc,[6],8 mm
same,inhibition of growth at 10 µM,[35],16.5%
same,zone of inhibition at 200 µg/disc,[7],8 mm
same,inhibition of growth at 10 µM,[36],12.6%
same,inhibition of growth at 10 µM,[37],53%
same,inhibition of growth at 10 µM,[38],11.7%
same,inhibition of growth at 10 µM,[39],29.3%
same,zone of inhibition at 200 µg/disc,[9],8 mm
same,inhibition of growth at 10 µM,[40],19%
same,inhibition of growth at 10 µM,[41],10.8%
same,inhibition of growth at 10 µM,[42],16.9%
same,inhibition of growth at 10 µM,[43],11.6%
same,inhibition of growth at 10 µM,[44],24.6%
same,zone of inhibition at 200 µg/disc,[10],8 mm
same,inhibition of growth at 10 µM,[45],33.1%
GENTAMICIN,Activity,[1],Active
same,Activity,[2],Active
same,Activity,[3],Active
same,Activity,[4],Active
same,inhibition zone (IZ),[5],25 mm
same,inhibition zone (IZ),[6],19 mm
same,inhibition zone (IZ),[7],18 mm
same,Activity,[8],Active
same,inhibition zone (IZ),[9],21 mm
same,inhibition zone (IZ),[10],27 mm
